Key:
[1] = test system: DOHH2 cells; assay: Cell proliferation assay (MTS), DOHH2 cells, 120 h; format: cell-based; conditions: Homo sapiens, DOHH-2, 120 h
Summary of the method: (§1)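 Treatment lasts 72 h for RS4;11 and 120 h for DOHH2 cells seeded at 5000 per well in serum-containing RPMI-1640. A 2 h MTS step, halted with 10% SDS, precedes dual-wavelength absorbance reading and IC50 fitting.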

[2] = test system: RS4;11 cells; assay: Cell proliferation assay (MTS), RS4;11 cells, 72 h; format: cell-based; conditions: Homo sapiens, RS4-11, 72 h
Summary of the method: as §1

Compound	IC50 [2]	IC50 [1]
C[C@@H]1CN(C[C@H]2COc3cc(S(=O)(=O)NC(=O)c4ccc(N5CCN(CC6=C(c7ccc(Cl)cc7)CC(C)(C)CC6)CC5)cc4Oc4cnc5[nH]ccc5c4)cc([N+](=O)[O-])c3N2)CCN1C [Example 2-26, 2-((1H-pyrrolo[2,3-b]pyridin-5-yl)oxy)-4-(4-((4′-chloro-5,5-dimethyl-3,4,5,6-tetrahydro-[1,1′-biphenyl]-2-yl)methyl)piperazin-1-yl)-N-(((S)-3-(((R)-3,4-dimethylpiperazin-1-yl)methyl)-5-nitro-3,4-dihydro-2H-benzo [b][1,4]oxazin-7-yl)sulfonyl)benzamide]	6 nM	19 nM
CC1(C)CCC(CN2CCN(c3ccc(C(=O)NS(=O)(=O)c4cc5c(c([N+](=O)[O-])c4)N[C@@H](CN4CCN(C6COC6)CC4)CO5)c(Oc4cnc5[nH]ccc5c4)c3)CC2)=C(c2ccc(Cl)cc2)C1 [Example 2-28, (S)-2-((1H-pyrrolo[2,3-b]pyridin-5-yl)oxy)-4-(4-((4′-chloro-5,5-dimethyl-3,4,5,6-tetra-hydro-[1,1′-biphenyl]-2-yl)methyl)piperazin-1-yl)-N-((5-nitro-3-((4-(oxetan-3-yl)piper-azin-1-yl)methyl)-3,4-dihydro-2H-benzo[b] [1,4]oxazin-7-yl)sulfonyl)benzamide]	1 nM	1 nM
C[C@H]1CN(C[C@H]2COc3cc(S(=O)(=O)NC(=O)c4ccc(N5CCN(CC6=C(c7ccc(Cl)cc7)CC(C)(C)CC6)CC5)cc4Oc4cnc5[nH]ccc5c4)cc([N+](=O)[O-])c3N2)CCO1 [Example 2-31, 2-((1H-pyrrolo[2,3-b]pyridin-5-yl)oxy)-4-(4-((4′-chloro-5,5-dimethyl-3,4,5,6-tetrahydro-[1,1′-biphenyl]-2-yl)methyl)piperazin-1-yl)-N-(((S)-3-(((S)-2-methylmorpholino)meth-yl)-5-nitro-3,4-dihydro-2H-benzo[b][1,4]oxazin-7-yl)sulfonyl)benzamide]	7 nM	18 nM
C[C@@H]1CN(C[C@H]2COc3cc(S(=O)(=O)NC(=O)c4ccc(N5CCN(CC6=C(c7ccc(Cl)cc7)CC(C)(C)CC6)CC5)cc4Oc4cnc5[nH]ccc5c4)cc([N+](=O)[O-])c3N2)CCO1 [Example 2-32, 2-((1H-pyrrolo[2,3-b]pyridin-5-yl)oxy)-4-(4-((4′-chloro-5,5-dimethyl-3,4,5,6-tetrahydro-[1,1′-biphenyl]-2-yl)methyl)piperazin-1-yl)-N-(((S)-3-(((R)-2-methylmorpholino)meth-yl)-5-nitro-3,4-dihydro-2H-benzo[b][1,4]oxazin-7-yl)sulfonyl)benzamide]	18 nM	34 nM
CC1(C)CCC(CN2CCN(c3ccc(C(=O)NS(=O)(=O)c4cc5c(c([N+](=O)[O-])c4)N[C@H](CCN=S(C)(C)=O)CO5)c(Oc4cnc5[nH]ccc5c4)c3)CC2)=C(c2ccc(Cl)cc2)C1 [Example 2-33, (R)-2-((1H-pyrrolo[2,3-b]pyridin-5-yl)oxy)-4-(4-((4′-chloro-5,5-dimethyl-3,4,5,6-tetra-hydro-[1,1′-biphenyl]-2-yl)methyl)piperazin-1-yl)-N-((3-(2-((dimethyl(oxo)-l6-sulfanyl-idene)amino)ethyl)-5-nitro-3,4-dihydro-2H-benzo[b][1,4]oxazin-7-yl)sulfonyl)benza-mide]	11 nM	25 nM
CC1(C)CCC(CN2CCN(c3ccc(C(=O)NS(=O)(=O)c4cc5c(c([N+](=O)[O-])c4)N[C@H](CCN4CC(O)C4)CO5)c(Oc4cnc5[nH]ccc5c4)c3)CC2)=C(c2ccc(Cl)cc2)C1 [Example 2-34, (R)-2-((1H-pyrrolo[2,3-b]pyridin-5-yl)oxy)-4-(4-((4′-chloro-5,5-dimethyl-3,4,5,6-tetra-hydro-[1,1′-biphenyl]-2-yl)methyl)piperazin-1-yl)-N-((3-(2-(3-hydroxyazetidin-1-yl)eth-yl)-5-nitro-3,4-dihydro-2H-benzo[b][1,4]oxazin-7-yl)sulfonyl)benzamide]	14 nM	41 nM
CC1(C)CCC(CN2CCN(c3ccc(C(=O)NS(=O)(=O)c4cc5c(c([N+](=O)[O-])c4)N[C@H](CCN4CC(C)(O)C4)CO5)c(Oc4cnc5[nH]ccc5c4)c3)CC2)=C(c2ccc(Cl)cc2)C1 [Example 2-35, (R)-2-((1H-pyrrolo[2,3-b]pyridin-5-yl)oxy)-4-(4-((4′-chloro-5,5-dimethyl-3,4,5,6-tetra-hydro-[1,1′-biphenyl]-2-yl)methyl)piperazin-1-yl)-N-((3-(2-(3-hydroxy-3-methylazetidin-1-yl)ethyl)-5-nitro-3,4-dihydro-2H-ben-zo[b][1,4]oxazin-7-yl)sulfonyl)benzamide]	5 nM	30 nM
C[C@@H]1CN(CC[C@@H]2COc3cc(S(=O)(=O)NC(=O)c4ccc(N5CCN(CC6=C(c7ccc(Cl)cc7)CC(C)(C)CC6)CC5)cc4Oc4cnc5[nH]ccc5c4)cc([N+](=O)[O-])c3N2)CCN1C [Example 2-36, 2-((1H-pyrrolo[2,3-b]pyridin-5-yl)oxy)-4-(4-((4′-chloro-5,5-dimethyl-3,4,5,6-tetrahydro-[1,1′-biphenyl]-2-yl)methyl)piperazin-1-yl)-N-(((R)-3-(2-((R)-3,4-dimethylpiperazin-1-yl)ethyl)-5-nitro-3,4-dihydro-2H-benzo [b][1,4]oxazin-7-yl)sulfonyl)benzamide]	7 nM	33 nM

More lines, main results first:

IC50 [2]	Compound	IC50 [1]
1 nM	C[C@H]1CN(C[C@H]2COc3cc(S(=O)(=O)NC(=O)c4ccc(N5CCN(CC6=C(c7ccc(Cl)cc7)CC(C)(C)CC6)CC5)cc4Oc4cnc5[nH]ccc5c4)cc([N+](=O)[O-])c3N2)CCN1C [Example 2-27, 2-((1H-pyrrolo[2,3-b]pyridin-5-yl)oxy)-4-(4-((4′-chloro-5,5-dimethyl-3,4,5,6-tetra-hydro-[1,1′-biphenyl]-2-yl)methyl)piperazin-1-yl)-N-(((S)-3-(((S)-3,4-dimethylpiperazin-1-yl)methyl)-5-nitro-3,4-dihydro-2H-benzo [b][1,4]oxazin-7-yl)sulfonyl)benzamide]	12 nM
1 nM	C[C@@H]1CN(C[C@H]2COc3cc(S(=O)(=O)NC(=O)c4ccc(N5CCN(CC6=C(c7ccc(Cl)cc7)CC(C)(C)CC6)CC5)cc4Oc4cnc5[nH]ccc5c4)cc([N+](=O)[O-])c3N2)CCN1C1COC1 [Example 2-29, 2-((1H-pyrrolo[2,3-b]pyridin-5-yl)oxy)-4-(4-((4′-chloro-5,5-dimethyl-3,4,5,6-tetrahydro-[1,1′-biphenyl]-2-yl)methyl)piperazin-1-yl)-N-(((S)-3-(((R)-3-methyl-4-(oxetan-3-yl)piperazin-1-yl)methyl)-5-nitro-3,4-dihydro-2H-benzo[b][1,4]oxazin-7-yl)sulfonyl) benzamide]	7 nM
1 nM	C[C@H]1CN(C[C@H]2COc3cc(S(=O)(=O)NC(=O)c4ccc(N5CCN(CC6=C(c7ccc(Cl)cc7)CC(C)(C)CC6)CC5)cc4Oc4cnc5[nH]ccc5c4)cc([N+](=O)[O-])c3N2)CCN1C1COC1 [Example 2-30]	8 nM
